Results as given in the supplement of paper PMC10307832.

Legend:
Assay in all cases: relative viability (nuclei count vs DMSO), 5 days (fraction); higher = more cells survive
CX-5461 + OSI-027 = compound: Cc1cnc(CNC(=O)c2c(=O)c3ccc(N4CCCN(C)CC4)nc3n3c2sc2ccccc23)cn1 [CX-5461] + COc1cccc2cc(-c3nc([C@H]4CC[C@H](C(=O)O)CC4)n4ncnc(N)c34)[nH]c12 [OSI-027] (partner 0.5 µM)
Outline: (§1)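 Nuclei were stained with Hoechst during a one-step fixation (final 0.05% Triton X-100, 1% formaldehyde, 1 ug/ml Hoechst) carried out 5 days after dosing, then counted on 4× images. The cells, lung cancer lines in 1536-well plates, had been dosed by pin tool the day after seeding with one drug alone or a fixed anchor-drug dose plus five library-drug doses (not always all listed) in √10 steps. Relative viability is the nuclei count in treated wells divided by that in vehicle wells, and each value is the median of duplicate plates.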

CX-5461 + Vorinostat = compound: Cc1cnc(CNC(=O)c2c(=O)c3ccc(N4CCCN(C)CC4)nc3n3c2sc2ccccc23)cn1 [CX-5461] + O=C(CCCCCCC(=O)Nc1ccccc1)NO [Vorinostat] (partner 1 µM)
Outline: as §1

IMD-0354 + Navitoclax = compound: O=C(Nc1cc(C(F)(F)F)cc(C(F)(F)F)c1)c1cc(Cl)ccc1O [IMD-0354] + CC1(C)CCC(c2ccc(Cl)cc2)=C(CN2CCN(c3ccc(C(=O)NS(=O)(=O)c4ccc(N[C@H](CCN5CCOCC5)CSc5ccccc5)c(S(=O)(=O)C(F)(F)F)c4)cc3)CC2)C1 [Navitoclax] (partner 0.5 µM)
Outline: as §1

IMD-0354 + Linsitinib = compound: O=C(Nc1cc(C(F)(F)F)cc(C(F)(F)F)c1)c1cc(Cl)ccc1O [IMD-0354] + C[C@]1(O)C[C@@H](c2nc(-c3ccc4ccc(-c5ccccc5)nc4c3)c3c(N)nccn32)C1 [Linsitinib] (partner 1 µM)
Outline: as §1

Cell Line | relative viability (CX-5461 + OSI-027; first compound 0.01 µM) | relative viability (CX-5461 + OSI-027; first compound 0.03162 µM) | relative viability (CX-5461 + OSI-027; first compound 0.1 µM) | relative viability (CX-5461 + OSI-027; first compound 0.3162 µM) | relative viability (CX-5461 + OSI-027; first compound 1 µM) | relative viability (CX-5461 + Vorinostat; first compound 0.01 µM) | relative viability (CX-5461 + Vorinostat; first compound 0.03162 µM) | relative viability (CX-5461 + Vorinostat; first compound 0.1 µM) | relative viability (CX-5461 + Vorinostat; first compound 0.3162 µM) | relative viability (CX-5461 + Vorinostat; first compound 1 µM) | relative viability (IMD-0354 + Navitoclax; first compound 0.04 µM) | relative viability (IMD-0354 + Navitoclax; first compound 0.1265 µM) | relative viability (IMD-0354 + Navitoclax; first compound 0.4 µM) | relative viability (IMD-0354 + Navitoclax; first compound 1.265 µM) | relative viability (IMD-0354 + Navitoclax; first compound 4 µM) | relative viability (IMD-0354 + Linsitinib; first compound 0.04 µM) | relative viability (IMD-0354 + Linsitinib; first compound 0.1265 µM) | relative viability (IMD-0354 + Linsitinib; first compound 0.4 µM) | relative viability (IMD-0354 + Linsitinib; first compound 1.265 µM) | relative viability (IMD-0354 + Linsitinib; first compound 4 µM)
201T | 0.911 | 0.669 | 0.726 | 0.502 | 0.552 | 1.07 | 1.04 | 1.02 | 0.559 | 0.976 | 1.27 | 1.25 | 0.77 | 1 | 0.752 | 1.13 | 1.01 | 1.02 | 1.06 | 0.385
A549 |  |  |  |  |  |  |  |  |  |  | 1.37 | 1.19 | 0.54 | 0.0726 | 0.0514 | 0.782 | 0.581 | 0.264 | 0.439 | 0.0949
A-427 | 0.488 | 0.534 | 0.542 |  | 0.378 | 0.879 | 0.884 | 0.872 | 0.805 | 0.548 | 0.989 | 0.983 | 0.654 | 0.546 | 0.115 | 1.21 | 1.1 | 0.986 | 0.719 | 0.115
ABC-1 | 0.465 | 0.562 | 0.251 |  | 0.362 | 1.2 |  | 1.02 | 0.442 | 0.394 |  |  |  |  |  | 0.858 | 0.826 | 0.57 | 0.335 | 0.28
Calu-6 |  |  |  |  |  |  |  |  |  |  | 0.94 | 0.903 | 0.355 | 0.122 | 0.104 | 0.92 | 0.859 | 0.862 | 0.0995 | 0.0777
ChaGo-K-1 | 0.578 | 0.636 | 0.537 | 0.331 | 0.315 | 0.786 | 0.81 | 0.699 | 0.262 | 0.513 | 1.43 | 1.48 | 0.672 | 0.296 | 0.327 |  |  |  |  | 
EBC-1 |  |  |  |  |  |  |  |  |  |  | 0.41 | 0.374 | 0.334 | 0.144 | 0.185 | 0.845 | 0.703 | 0.741 | 0.113 | 0.164
IA-LM |  |  |  |  |  | 1 | 0.925 | 1.11 | 0.828 | 1.01 | 0.778 | 0.662 | 0.381 | 0.122 | 0.0656 | 0.653 | 0.486 | 0.745 | 0.0945 | 0.16
LCLC-103H | 0.458 | 0.433 | 0.434 | 0.446 | 0.384 | 0.784 | 0.855 | 0.827 | 0.517 | 0.741 |  |  |  |  |  | 1.11 | 1.07 | 0.844 | 0.821 | 0.425
NCI-H358 | 0.621 | 0.939 | 0.69 | 0.592 | 0.194 | 0.745 | 0.78 | 0.701 | 0.27 | 0.402 |  |  |  |  |  | 0.993 | 0.773 | 0.385 | 0.23 | 0.221
NCI-H522 | 0.739 | 0.771 | 0.77 |  | 0.669 | 1 | 1.1 | 0.955 |  | 0.852 |  |  |  |  |  |  |  |  |  | 
NCI-H650 | 0.578 | 0.558 | 0.483 | 0.536 | 0.352 | 0.462 | 0.294 | 0.635 | 0.399 | 0.312 |  |  |  |  |  | 1.01 | 0.911 | 0.505 | 0.249 | 0.223
NCI-H661 | 0.654 | 0.698 | 0.615 | 0.834 | 0.387 | 0.822 | 0.8 | 0.734 | 0.472 | 0.583 |  |  |  |  |  | 0.65 | 0.632 | 0.57 | 0.532 | 0.251
NCI-H1299 |  |  |  |  |  |  |  |  |  |  | 0.981 | 1.08 | 0.259 | 0.442 | 0.146 | 0.933 | 0.895 | 0.839 | 0.168 | 0.158
NCI-H1563 | 0.715 | 0.745 | 0.691 | 0.771 | 0.52 |  |  |  |  |  |  |  |  |  |  | 1.25 | 1.06 | 1.11 | 0.784 | 0.457
NCI-H1623 | 0.394 | 0.434 | 0.481 | 0.41 | 0.417 |  |  |  |  |  |  |  |  |  |  |  |  |  |  | 
NCI-H1648 |  | 0.256 | 0.277 | 0.27 | 0.27 | 0.526 | 0.355 | 0.49 | 0.495 | 0.483 |  |  |  |  |  |  |  |  |  | 
NCI-H1650 | 0.678 | 0.643 | 0.283 | 0.497 | 0.182 | 0.619 | 0.466 | 0.33 | 0.61 | 0.261 | 1.42 | 1.06 | 0.682 | 0.149 | 0.171 |  |  |  |  | 
NCI-H1703 |  |  |  |  |  |  |  |  |  |  | 1.37 | 1.12 | 0.843 | 0.131 | 0.115 | 1.38 | 0.583 | 0.888 | 0.125 | 0.141
NCI-H1792 | 0.657 | 0.786 | 0.763 | 0.759 | 0.659 |  |  |  |  |  | 0.761 | 0.564 | 1.66 | 0.346 | 0.482 | 0.627 | 0.424 | 0.906 | 0.471 | 0.293
NCI-H2170 | 0.812 | 0.666 | 0.754 | 0.707 | 0.747 | 0.887 | 0.772 | 0.846 | 0.743 | 0.703 | 0.608 | 0.585 | 0.562 | 0.644 | 0.274 |  |  |  |  | 
NCI-H2342 | 0.633 | 0.599 | 0.584 | 0.642 | 0.598 | 0.686 | 0.768 | 0.642 | 0.619 | 0.776 |  |  |  |  |  |  |  |  |  | 
SW 900 | 0.423 | 0.601 | 0.488 | 0.386 | 0.271 | 0.446 | 0.586 |  | 0.637 | 0.359 |  |  |  |  |  |  |  |  |  | 
